Results published in patent publication US9157088B2, “Transferases, epimerases, polynucleotides encoding these and uses thereof” (priority 2007, dated 2015).

Assays:
[1] = biological target: kiwifruit GDP-L-Galactose Guanyltransferase EST 319998 (Actinidia chinensis, UniProt A0A2R6QD99); experiment: Continuous coupled assay of transferase activity with guanyl acceptors; settings: sugar phosphate as guanyl acceptor, epimerase generated substrate
Description: (§1) Expression of genes in E. coli. The EST 319998 from young fruit of Actinidia chinensis and At4g26850 were each cloned into pET30A (Novagene, USA), their sequence checked and expressed in E. coli. The N terminal His6 tag was used to purify the protein. An empty vector control was expressed and purified in parallel. Techniques were essentially as described earlier (Laing et al., 2004).
L-Galactose dehydrogenase (Gen Bank accession AA018639 (EST 56121), 1.5 ug/assay) was cloned from an EST derived from an A. deliciosa (kiwifruit) shoot bud library with a maltose binding protein presequence and assayed as described previously (Laing et al., 2004). L-Galactose-1-Phosphate phosphatase was cloned from Arabidopsis thaliana (At3g02870, 3.1 ug/assay) and assayed as described (Laing et al., 2004). GDP-D-Mannose 3′,5′-Epimerase (198296) was cloned from dormant kiwifruit (A. deliciosa) buds three days after hydrogen cyanamide treatment and assayed as described (Wolucka et al., 2001). The former two enzymes are highly specific as to their substrates (Laing et al., 2004; Laing et al., 2004).
The assay for GDP-L-Galactose-1-Phosphate Guanyltransferase was run in 20 mM TrisCl, pH 8.0, GDP-L-Galactose, with 1 mM D-Mannose-1-Phosphate. […] In the latter case, 0.21 mg of epimerase was incubated with GDP-D-Mannose in 20 mM Tris Cl pH 8 in a total volume of 400 μL (see Wolucka et al., 2001) for 30 minutes at 20 C and then used directly in the assay at a 1 to 20 dilution. Assays were either terminated after 10 minutes by heating to 100 C for three minutes, or directly coupled to the phosphatase and L-Galactose dehydrogenase to measure product formation during the assay. Heat terminated assays were cooled on ice, centrifuged to remove precipitated protein and L-Galactose assayed using the coupling enzymes described above (see also (Laing et al., 2004)).
The applicants used two assays to characterise the enzyme, using two sources of the substrate GDP-L-Galactose. The first assay used the E. coli expressed coupling enzymes L-Galactose-1-Phosphate phosphatase and L-Galactose dehydrogenase. […] The applicants either measured the product formed by adding the coupling enzymes in the assay and measuring the time course of NADH formed, or by stopping the reaction after 10 minutes by boiling for 3 minutes and centrifuging. To this latter fixed time assay, the applicants then either adding coupling enzymes to measure L-Galactose production or using the LCMS to measure the products. The LCMS was used only to confirm the results of the coupled enzyme reaction and to measure the reverse reaction.

[2] = biological target: T1, L-Galactose-1-Phosphate phosphatase (Arabidopsis thaliana, UniProt Q9M8S8); settings: cited from earlier work
T1 construct: made in house; host or cells: E. coli
T1 sequence (Q9M8S8 1-271): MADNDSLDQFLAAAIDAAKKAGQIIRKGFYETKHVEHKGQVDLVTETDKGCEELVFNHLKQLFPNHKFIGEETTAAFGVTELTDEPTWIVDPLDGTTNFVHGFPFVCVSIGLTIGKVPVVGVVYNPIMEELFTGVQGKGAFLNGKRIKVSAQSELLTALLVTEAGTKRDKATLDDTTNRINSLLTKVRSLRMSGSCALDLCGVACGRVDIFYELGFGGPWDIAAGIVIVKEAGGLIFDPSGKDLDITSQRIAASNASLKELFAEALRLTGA

[3] = test system: L-Galactose dehydrogenase; settings: cited from earlier work
[4] = Transferase activity of E. coli expressed enzymes (coupled reaction and LCMS); assay type: biochemical; settings: enzyme expressed in E. coli, His tag purified
Description: as §1, with “2004). In much of this work the His-protein was further purified on a 5 mL HiTrap Q FF column (GE Healthcare), and identical results were obtained with both preparations.” for “2004).”
The assay for GDP-L-Galactose-1-Phosphate Guanyltransferase was run in 20 mM TrisCl, pH 8.0, GDP-L-Galactose, with 1 mM D-Mannose-1-Phosphate. GDP-L-Galactose was either used directly from the Glycoteam product (in which case high backgrounds were observed due to contaminating L-Galactose-1-Phosphate) or GDP-L-Galactose was generated using the epimerase. In the latter case, 0.21 mg of epimerase was incubated with GDP-D-Mannose in 20 mM Tris Cl pH 8 in a total volume of 400 μL (see Wolucka et al., 2001) for 30 minutes at 20 C and then used directly in the assay at a 1 to 20 dilution. Assays were either terminated after 10 minutes by heating to 100 C for three minutes, or directly coupled to the phosphatase and L-Galactose dehydrogenase to measure product formation during the assay. Heat terminated assays were cooled on ice, centrifuged to remove precipitated protein and L-Galactose assayed using the coupling enzymes described above (see also (Laing et al., 2004)). Assays for L-Galactose were linear with added L-Galactose-1-Phosphate over the range measured. Backgrounds were run using the empty vector control, which gave the same result as a boiled enzyme control. […]
The applicants used two assays to characterise the enzyme, using two sources of the substrate GDP-L-Galactose. […] The applicants either measured the product formed by adding the coupling enzymes in the assay and measuring the time course of NADH formed, or by stopping the reaction after 10 minutes by boiling for 3 minutes and centrifuging. […]

Chain of kiwifruit GDP-L-Galactose Guanyltransferase EST 319998 (A0A2R6QD99 entry or part of it): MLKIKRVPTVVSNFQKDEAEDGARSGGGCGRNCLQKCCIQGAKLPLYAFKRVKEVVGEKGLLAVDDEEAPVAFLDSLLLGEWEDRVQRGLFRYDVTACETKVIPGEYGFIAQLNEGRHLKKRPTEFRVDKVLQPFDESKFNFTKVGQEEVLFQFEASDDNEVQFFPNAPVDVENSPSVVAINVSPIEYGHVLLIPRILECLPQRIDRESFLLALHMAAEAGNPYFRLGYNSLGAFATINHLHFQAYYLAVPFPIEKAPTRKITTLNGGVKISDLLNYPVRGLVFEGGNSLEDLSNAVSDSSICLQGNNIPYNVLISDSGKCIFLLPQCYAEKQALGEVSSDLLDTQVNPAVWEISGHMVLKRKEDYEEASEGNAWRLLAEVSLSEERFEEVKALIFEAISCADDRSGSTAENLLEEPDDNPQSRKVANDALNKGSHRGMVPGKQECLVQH

## O=P(O)(O)OC1[C@@H](O)[C@H](O)C(O)[C@H](O)[C@@H]1O (stereo partly drawn) [L-Myoinositol-1-P]
[1]
  % of D-mannose-1P: 126%
[1]; N = 6
  Rate: 0.42 nmoles/sec/ug protein
[2]
  dephosphorylation by L-Galactose-1-Phosphate phosphatase: significantly dephosphorylating

## O=C[C@@H](O)[C@@H](O)[C@H](O)[C@H](O)CO [D-Mannose]
[3]
  reaction with L-Galactose dehydrogenase: not reacting

## O=C[C@H](O)[C@@H](O)[C@@H](O)[C@H](O)CO [D-Galactose]
[3]
  reaction with L-Galactose dehydrogenase: not reacting

B1: At4g26850: GDP-L-Galactose Guanyltransferase, VTC2 from Arabidopsis thaliana (protein, listed as Arabidopsis thaliana)
chain: MLKIKRVPTVVSNYQKDDGAEDPVGCGRNCLGACCLNGARLPLYACKNLVKSGEKLVISHEAIEPPVAFLESLVLGEWEDRFQRGLFRYDVTACETKVIPGKYGFVAQLNEGRHLKKRPTEFRVDKVLQSFDGSKFNFTKVGQEELLFQFEAGEDAQVQFFPCMPIDPENSPSVVAINVSPIEYGHVLLIPRVLDCLPQRIDHKSLLLAVHMAAEAANPYFRLGYNSLGAFATINHLHFQAYYLAMPFPLEKAPTKKITTTVSGVKISELLSYPVRSLLFEGGSSMQELSDTVSDCCVCLQNNNIPFNILISDCGRQIFLMPQCYAEKQALGEVSPEVLETQVNPAVWEISGHMVLKRKEDYEGASEDNAWRLLAEASLSEERFKEVTALAFEAIGCSNQEEDLEGTIVHQQNSSGNVNQKSNRTHGGPITNGTAAECLVLQ
[4]
  GDP-L-Galactose Guanyltransferase activity of the expressed enzyme: showed transferase activity
[4]; listed as At4g26
  GDP-L-Galactose Guanyltransferase activity of the expressed enzyme: could catalyse the conversion of GDP-L-Galactose to L-Galactose-1-P
